Assay results from EP0285267A2, “Pyridine derivatives for treatment and prevention of liver damage, and their preparation” (YAMANOUCHI PHARMACEUTICAL CO. LTD., priority 1987, dated 1988).

Columns and labels:
[1] = system: serum GPT elevation due to carbon tetrachloride liver damage; assay: Carbon tetrachloride induced liver damage in rats, inhibition of serum GPT elevation; format: in vivo, Male Sprague Dawley rats; details: given twice (1 hour before and 3 hours after carbon tetrachloride 1 ml/kg orally), blood 24 hours after, route not given
Method: The experimental liver damage was induced with carbon tetrachloride as the challenging agent. Carbon tetrachloride caused liver damage resembling that of alcohol-induced liver injury.
Male Sprague Dawley rats weighing around 160 grams were used. Carbon tetrachloride was dissolved in olive oil to obtain 20% solution, which was administed in doses of 5ml/kg orally (carbon tetrachloride: 1 ml/ kg). The test compounds were suspended in Cremophor buffer for intraperitoneal administration, and in 0.5% methyl cellulose solution for oral administration; and the test solutions were administered in doses of 5ml/kg respectively. The administration of the test compound was conducted twice, namely, 1 hour before and 3 hours after the administration of carbon tetrachloride. 24 hours after the administration of carbon tetrachloride, blood was collected via the great abdominal vein, and the level of serum GPT was measured. […] Thus, the compounds of this invention are usuful for agents for treatment and prevention of liver damage.
Other compounds, of formula I-B, were also found to have activity inhibiting the elevation of GPT due to carbon tetrachloride administration.

[2] = system: increase in GPT level, galactosamine-induced liver damage; assay: D-galactosamine challenge in rats (test compound in 0.5 % methyl cellulose), inhibition of increase in serum GPT; format: in vivo, SD male rats; details: 30 mg/kg oral in 0.5 % methyl cellulose, twice (1 hour before and 3 hours after D-galactosamine 425mg/kg i.p.), blood 24 hours after
Method: Experimental liver damage was induced with D-galactosamine as the challenging agent. Liver damage caused by D-galactosamine resembled that of acute hepatitis. The galactosamine hepatitis model is described in known prior art.
Animals used: SD male rats (7 week age, about 220 g body weight)
Administration method of the challenge compound: • D-galactosamine was dissolved in a physiological sodium chloride aqueous solution, and this solution was administered intraperitoneally to give galactosamine-induced liver damage. (Administered dose: 425mg/4mllkg) Administration method of the test compound: The test compound was suspended in 0.5 % methyl cellulose solution, and administered in doses of 30 mg/5 mi/kg, orally. The test compound was administered twice (1 hour before the D-galactosamine administration and 3 hours after its administration). 24 hours after the D-galactosamine administration, blood was obtained from the pentobarbital-anesthetized rats,and the level of serum-GPT was determined.

[3] = Absorbability / bioavailability (statement); format: in vivo; details: qualitative statement; oral suspension in 0.5 % methyl cellulose
[4] = Solubility in water (statement); format: physicochemical; details: qualitative statement

Molecule	Inhibiting effect (%) (30mg/kg administration) [1]	Inhibition rate (%) (30mg/kg, oral administration) [2]	other results
COC(=O)c1c(C)nc(C)c(C(=O)OC)c1-c1ccc2c(c1OC)OCO2 [Example 2, dimethyl 4-(2-methoxy-3,4-methylenedioxy)phenyl-2,6-dimethylpyridine-3,5-dicarboxylate]	81.1	–	–
COC(=O)C1=C(C)NC(C)=C(C(=O)OC)C1c1ccc2c(c1C(=O)OC)OCO2 [Example 7, dimethyl 4-(2-methoxycarbonyl-3,4-meth-lenedioxy)phenyl-2,6-dimethyl-1,4-dihydropyridine-3,5-dicarboxylate]	74.9	70.7	–
COC(=O)c1c(-c2c(C(=O)OC)c(C)nc(C)c2C(=O)OC)cc(OC)c2c1OCO2 [Example 14]	–	67.8	–
COC(=O)C1=C(C)NC(C)=C(C(=O)OC)C1c1cc2c(cc1Br)OCO2 [Example 22, Dimethyl 4-(3,4-methylenedioxy-6-bromo)phenyl-2,6-dimethyl-1,4-dihydropyridine-3,5-dicarboxylate]	82.3	–	–
COC(=O)c1c(C)nc(C)c(C(=O)OC)c1-c1c([N+](=O)[O-])ccc2c1OCO2 [Example 36, Dimethyl 4-(2,3-methylenedioxy-6-nitro)phenyl-2,6-dimethylpyridine-3,5-dicarboxylate]	89.7	–	–
COC(=O)C1=C(C)NC(C)=C(C(=O)OC)C1c1ccccc1C(=O)OC [Example C, dimethyl 4-(2-methoxycarbonyl)phenyl-2,6-dimethyl-1,4-dihydropyridine-3,5-dicarboxylate]	91.6	–	–
COC(=O)C1=C(C)NC(C)=C(C(=O)OC)C1c1cccc2c1OCO2 [Example P, dimethyl 4-(2,3-methylenedioxy)phenyl-2,6-dimethyl-1,4-dihydropyridine-3,5-dicarboxylate]	85.4	–	–
COC(=O)c1c(C)nc(C)c(C(=O)OC)c1-c1cccc2c1OCO2 [Example U, dimethyl 4-(2,3-methylenedioxy)phenyl-2,6-dimethylpyridine-3,5-dicarboxylate]	76.0	–	–
CCOc1c(N)c2c(c(OCC)c1OCC)C(C1c3c(cc4c(c3OC)OCO4)CCN1C)OC2=O (stereo not shown) [Tritoqualine]	–	0	bioavailability (absorbability) [3]: low bioavailability; solubility in water [4]: difficultly soluble in water
dimethyl 4-(3,4-methylenedioxy)phenyl-2,6-dimethyl-1,4-dihydropyridine-3,5-dicarboxylate [Example A]	68.6	–	–
